The values below are quoted from earlier work in patent US12485291B2, “Method for treatment of cholangiocarcinoma with cold atmospheric plasma and folfirinox” (Jerome Canady Research Institute for Advanced Biological …, priority 2019, dated 2025).

For this data set, the system named is metastatic pancreatic cancer. The conditions noted are these: patients with metastatic pancreatic cancer.

Molecules are shown by their SMILES.

As for `Nc1ccn([C@@H]2O[C@H](CO)[C@@H](O)C2(F)F)c(=O)n1` [gemcitabine], the overall survival is 6.8 months.
